Measurements as given in US20020072081A1, “Geranylgeranyl transferase inhibitor screening assay” (priority 2000, published 2002).

Molecular target: T1, GGTase-I (Rattus norvegicus, UniProt P53610)
T1 construct: endogenous in cells; host or cells: H-ras transformed Rat1 fibroblast cell line (Hras2b/rat1)
Assay: Cell Radiotracer Assay of Geranylgeranyl Transferase Inhibitor (CRAGGTI), radioligand binding to living cells
Conditions: H-ras transformed Rat1 fibroblast cell line; specific binding, non-specific determined with 1000-fold molar excess of unlabeled Compound A; read-out: concentration of [^3H] Compound A that achieves half maximal binding to cells (apparent Kd)
Method: In an embodiment of the instant invention, the assay involves growing a cell line in 24-well cell culture plates as an adherent population of cells until the cell culture is nearly confluent. The concentration of radioligand required to achieve half-maximal specific binding to cells is determined by adding the radioligand at varying concentrations to cell culture media, and incubating this mixture with the cells for a defined period of time. To determine the level of non-specific binding of the radioligand, excess unlabeled GGTase-I inhibitor (unlabeled radioligand) is added to some of the wells. After incubation, the unbound radioligand is removed from the cells. […] The cell layer is then solubilized and analyzed. Having determined the concentration of radioligand that achieves half maximal binding to cells, one can determine the relative IC50s of test compounds by incubating varying concentrations of test compounds with the appropriate concentration of radioligand, and perform the cell incubations, washes, and solubilization steps as described. […]
Briefly, the method involves growing a cell line in 24-well cell culture plates as an adherent population of cells until the cell culture is nearly confluent. […] Compound A required to achieve half-maximal specific binding to cells is determined by adding [^3H] […] Having determined the concentration of [^3H] […]

How did the Kd turn out when `[3H]C(O)(CN1CCN(Cc2cncn2Cc2ccc(C#N)cc2)CC1=O)C12CC3CC(CC(C3)C1)C2` (stereo not shown) [[^3H] Compound A, [^3H]-R/S 1-(4-Cyanobenzyl)-5-[1-(2-hydroxy-2-(adamant-1-yl)ethyl)-2-oxo-piperazin-4-vl-methyl]imidazole] was run?
Its Kd is ~0.3 nM.
